The test system of test [1] is H3122 cells. The test is described as follows: CTG. The test is classed as cell-based. The conditions noted are these: read-out: CTG IC50.
The target of test [2] is T1, EML4-ALK (Homo sapiens, UniProt Q9UM73).
T1 construct: endogenous in cells; host or cells: H3122 (NSCLC), single-cell clone after CRISPR knock-in of HiBit; the other entry of the earlier key: EML4 (Q9HC35, Echinoderm microtubule-associated protein-like 4)
The test is described as follows: EML4-ALK HiBit degradation assay in CRISPR-tagged H3122 cells (Nano-Glo HiBit Lytic Detection). The test is classed as cell-based. On the procedure:
NSCLC cell line H3122 was subjected to CRISPR to express EML4-ALK with HiBit-tag on its c-terminal. Single-cell clone was selected and expanded for the following assays that monitor endogenous EML4-ALK level in high throughput manner. Cells were seeded in 384-well white Tissue-culture plates at 3000 cells/well for 8 hours. […] HiBit signal was assessed using Nano-Glo® HiBit Lytic Detection System (Promega™). Degrader-treated was normalized by DMSO-treated controls and DC50 and Dmax were generated by GraphPad Prism® 8.0.
NSCLC cell line H3122 was subjected to CRISPR to express EML4-ALK with HiBit-tag on its c-terminus. A single-cell clone was selected and expanded for the following assays that monitor endogenous EML4-ALK level in high throughput manner. Cells were seeded in 384-well white Tissue-culture plates at 3000 cells/well for 8 hours. […] HiBit signal was assessed using Nano-Glo® HiBit Lytic Detection System (Promega™). Degrader-treated cells were normalized by DMSO-treated controls and DC50 and Dmax were generated by GraphPad Prism® 8.0.
NSCLC cell line H3122 was subjected to CRISPR to express EML4-ALK with HiBit-tag on its C-terminus. A single-cell clone was selected and expanded for the following assays that monitor endogenous EML4-ALK level in high throughput manner. Cells were seeded in 384-well white Tissue-culture plates at 3000 cells/well for 8 hours. […] HiBit signal was assessed using Nano-Glo® HiBit Lytic Detection System (Promega™). Degrader-treated cells were normalized by DMSO-treated controls and DC50 and Dmax were generated by GraphPad Prism® 8.0.

The mark [3] stands for this setting: Homo sapiens, NCI-H3122, Table 1.
[4] abbreviates: NCI-H3122, Table 1, first Dmax column, H3122 EML4-ALK-HiBit, 16 hours, read-out: Degradation Dmax.
The mark [5] stands for this setting: NCI-H3122, Table 1, second Dmax column, H3122 EML4-ALK-HiBit, 16 hours, read-out: Degradation Dmax.
The mark [6] stands for this setting: NCI-H3122, Table 1, average Dmax, read-out: Degradation Avg. Dmax.
Where [7] appears, read: Table 1, first DC50 column, H3122 EML4-ALK-HiBit, 16 hours, read-out: Degradation DC50.
Setting [8] is: Table 1, second DC50 column, H3122 EML4-ALK-HiBit, 16 hours, read-out: Degradation DC50.
Where [9] appears, read: Table 1, average DC50, read-out: Degradation Avg. DC50.

This passage reports IC50, Dmax and DC50 results from patent publication US20230158157A1, “POTENT AND SELECTIVE DEGRADERS OF ALK” (DANA-FARBER CANCER INSTITUTE, INC., priority 2020, published 2023).

The structures appear in SMILES notation. Like-named read-outs stand apart in the source and are kept apart here.

T1 sequence (Q9UM73 with tags, fused parts or gaps): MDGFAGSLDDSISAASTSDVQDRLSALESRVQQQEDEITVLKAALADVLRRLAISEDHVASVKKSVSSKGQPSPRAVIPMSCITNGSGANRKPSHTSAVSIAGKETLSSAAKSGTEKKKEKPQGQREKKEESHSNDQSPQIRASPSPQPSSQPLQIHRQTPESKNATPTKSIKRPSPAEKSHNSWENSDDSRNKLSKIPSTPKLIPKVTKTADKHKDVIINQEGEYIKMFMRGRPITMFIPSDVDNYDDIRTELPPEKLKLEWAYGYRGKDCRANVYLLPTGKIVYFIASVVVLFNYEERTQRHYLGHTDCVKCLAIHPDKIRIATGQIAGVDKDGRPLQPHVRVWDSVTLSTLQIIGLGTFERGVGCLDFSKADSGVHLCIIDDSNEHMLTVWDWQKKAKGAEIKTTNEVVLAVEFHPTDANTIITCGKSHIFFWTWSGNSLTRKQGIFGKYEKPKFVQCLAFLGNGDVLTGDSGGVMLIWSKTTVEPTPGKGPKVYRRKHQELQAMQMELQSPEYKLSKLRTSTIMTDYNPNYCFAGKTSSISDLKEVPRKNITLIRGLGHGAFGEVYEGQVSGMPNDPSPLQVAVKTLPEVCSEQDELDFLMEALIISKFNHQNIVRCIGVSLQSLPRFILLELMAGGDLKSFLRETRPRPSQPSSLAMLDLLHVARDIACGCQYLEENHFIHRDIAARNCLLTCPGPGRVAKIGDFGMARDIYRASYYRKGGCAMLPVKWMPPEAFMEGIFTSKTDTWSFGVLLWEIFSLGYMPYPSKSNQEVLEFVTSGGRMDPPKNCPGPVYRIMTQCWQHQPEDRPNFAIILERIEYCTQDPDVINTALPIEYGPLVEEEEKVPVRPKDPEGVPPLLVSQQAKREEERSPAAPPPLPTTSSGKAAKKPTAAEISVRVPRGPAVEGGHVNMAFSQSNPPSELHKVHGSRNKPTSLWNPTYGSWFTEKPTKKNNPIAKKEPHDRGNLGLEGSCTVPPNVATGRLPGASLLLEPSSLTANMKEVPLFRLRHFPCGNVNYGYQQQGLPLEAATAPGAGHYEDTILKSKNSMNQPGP

What is called IC50 is the midpoint of a concentration-inhibition curve. What is called Dmax is the greatest extent of degradation seen. As a reminder, the DC50 is the midpoint of the concentration-degradation curve. For the compound `COc1cc(CCNCCCCCSC(C)(C)[C@H](NC(C)=O)C(=O)N2C[C@H](O)C[C@H]2C(=O)N[C@@H](C)c2ccc(-c3scnc3C)cc2)c(C)cc1Nc1ncc(Cl)c(Nc2ccccc2S(=O)(=O)C(C)C)n1` [Compound 48], the IC50 in test [1] (setting [3]) is 388 nM. Further, the Dmax came to 77.2% in test [2] (setting [4]), 108% in test [2] (setting [5]) and 92.8% in test [2] (setting [6]). The DC50 in test [2] (setting [7]) came to 961 nM; in test [2] (setting [8]), 611 nM; in test [2] (setting [9]), 786 nM.

Turning to `CC[C@@H](NC(=O)[C@@H]1C[C@H](NC(=O)CCCCCCCC(=O)N(C)CCc2cc(OC)c(Nc3ncc(Cl)c(Nc4ccccc4S(=O)(=O)C(C)C)n3)cc2C)CN1C(=O)[C@@H](NC(=O)[C@H](C)NC)C(C)(C)C)c1ccccc1` [Compound 56], the 50% inhibitory concentration (IC50) in test [1] (Table 1) turned out to be 360 nM. The 50% degradation concentration (DC50) was found to be 163 nM in test [2] (setting [7]), 226 nM in test [2] (setting [8]) and 195 nM in test [2] (setting [9]).

In the case of `CC[C@@H](NC(=O)C1CC(NC(=O)CCCCCCC(=O)N(C)CCc2cc(OC)c(Nc3ncc(Cl)c(Nc4ccccc4S(=O)(=O)C(C)C)n3)cc2C)CN1C(=O)[C@@H](NC(=O)[C@H](C)NC)C(C)(C)C)c1ccccc1` (stereo partly drawn) [Compound 55], the IC50 in test [1] (setting [3]) turned out to be 296 nM. Also, the Dmax in test [2] (setting [4]) stood at 74.6%; in test [2] (setting [5]), 102%; in test [2] (setting [6]) it was 88.2%. In addition, the half-maximal degradation concentration (DC50) in test [2] (setting [7]) was found to be 624 nM; in test [2] (setting [8]), 360 nM; in test [2] (setting [9]), 492 nM.

As for `COc1cc(CCN(C)C(=O)CCOCCOCCNC(=O)COc2cccc3c2C(=O)N(C2CCC(=O)NC2=O)C3=O)c(C)cc1Nc1ncc(Cl)c(Nc2ccccc2S(=O)(=O)C(C)C)n1` (stereo not drawn) [compound 8, N-(4-((5-chloro-4-((2-(isopropylsulfonyl)phenyl)amino)pyrimidin-2-yl)amino)-5-methoxy-2-methylphenethyl)-3-(2-(2-(2-((2-(2,6-dioxopiperidin-3-yl)-1,3-dioxoisoindolin-4-yl)oxy)acetamido)ethoxy)ethoxy)-N-methylpropanamide], the IC50 in test [1] (setting [3]) came to 75 nM. Also, the Dmax in test [2] (setting [4]) is 44.3%; in test [2] (setting [6]), 44.8%. Besides, the DC50 in test [2] (setting [7]) and in test [2] (setting [9]) was 171 nM throughout.

With `COc1cc(CCN(C)C(=O)CCCCCCC(=O)N[C@H](C(=O)N2C[C@H](O)C[C@H]2C(=O)N[C@@H](C)c2ccc(-c3scnc3C)cc2)C(C)(C)C)c(C)cc1Nc1ncc(Cl)c(Nc2ccccc2S(=O)(=O)C(C)C)n1` [compound 40, N^1-(4-((5-chloro-4-((2-(isopropylsulfonyl)phenyl)amino)pyrimidin-2-yl)amino)-5-methoxy-2-methylphenethyl)-N^8-((S)-1-((2S,4R)-4-hydroxy-2-(((S)-1-(4-(4-methylthiazol-5-yl)phenyl)ethyl)carbamoyl)pyrrolidin-1-yl)-3,3-dimethyl-1-oxobutan-2-yl)-N^1-methyloctanediamide], in test [1] (setting [3]), the concentration for half-maximal inhibition (IC50) was found to be 149 nM. The results for the Dmax in test [2] (setting [4]), in test [2] (setting [5]) and in test [2] (setting [6]) were 68.6%, 41.6% and 55.1%, respectively. Also, the values for the half-maximal degradation concentration (DC50) in test [2] (setting [7]), in test [2] (setting [8]) and in test [2] (setting [9]) were 392 nM, 145 nM and 269 nM, respectively.

Regarding `COc1cc(CCNCCOCCOCCC(=O)N[C@H](C(=O)N2C[C@H](O)CC2C(=O)N[C@@H](C)c2ccc(-c3scnc3C)cc2)C(C)(C)C)c(C)cc1Nc1ncc(Cl)c(Nc2ccccc2S(=O)(=O)C(C)C)n1` (stereo partly drawn) [Compound 46], the half-inhibitory concentration (IC50) in test [1] (setting [3]) was found to be 316 nM. Further, the Dmax came to 58% in test [2] (setting [4]), 34.5% in test [2] (setting [5]) and 51.3% in test [2] (setting [6]). The DC50 was 1390 nM in test [2] (setting [7]), 206 nM in test [2] (setting [8]) and 801 nM in test [2] (setting [9]).

As for `COc1cc(CCN(C)CCCCCOc2cc(-c3scnc3C)ccc2[C@H](C)NC(=O)[C@@H]2C[C@@H](O)CN2C(=O)[C@@H](NC(C)=O)C(C)(C)C)c(C)cc1Nc1ncc(Cl)c(Nc2ccccc2S(=O)(=O)C(C)C)n1` [Compound 54], in test [1] (setting [3]), the IC50 stood at 73.6 nM. Also, the Dmax in test [2] (setting [4]) was determined as 68.4%; in test [2] (setting [5]), 68.2%. Moreover, the values for the half-maximal degradation concentration (DC50) in test [2] (setting [7]), in test [2] (setting [8]) and in test [2] (setting [9]) were 67 nM, 57 nM and 62 nM, respectively.

`COc1cc(CCN(C)C(=O)CCOCCOCCOCC#Cc2cccc3c2C(=O)N(C2CCC(=O)NC2=O)C3=O)c(C)cc1Nc1ncc(Cl)c(Nc2ccccc2S(=O)(=O)C(C)C)n1` (stereo not drawn) [compound 11, N-(4-((5-chloro-4-((2-(isopropylsulfonyl)phenyl)amino)pyrimidin-2-yl)amino)-5-methoxy-2-methylphenethyl)-3-(2-(2-((3-(2-(2,6-dioxopiperidin-3-yl)-1,3-dioxoisoindolin-4-yl)prop-2-yn-1-yl)oxy)ethoxy)ethoxy)-N-methylpropanamide]: in test [1] (setting [3]), the IC50 was determined as 219 nM. For the same compound, the Dmax in test [2] (setting [4]) and in test [2] (setting [6]) was 53.3% throughout. Besides, the figures for the DC50 in test [2] (setting [7]) and in test [2] (setting [9]) were 502 nM and 302 nM, respectively.

For `COc1cc(CCN(C)C(=O)CCCCCNc2cccc3c2C(=O)N(C2CCC(=O)NC2=O)C3=O)c(C)cc1Nc1ncc(Cl)c(Nc2ccccc2S(=O)(=O)C(C)C)n1` (stereo not drawn) [compound 2, N-(4-((5-chloro-4-((2-(isopropylsulfonyl)phenyl)amino)pyrimidin-2-yl)amino)-5-methoxy-2-methylphenethyl)-6-((2-(2,6-dioxopiperidin-3-yl)-1,3-dioxoisoindolin-4-yl)amino)-N-methylhexanamide], the IC50 in test [1] (setting [3]) stood at 76.9 nM. Besides, the figures for the Dmax in test [2] (setting [4]) and in test [2] (setting [6]) were 24.1% and 31.4%, respectively. The DC50 was determined as 67 nM in test [2] (setting [7]), 46 nM in test [2] (setting [8]) and 57 nM in test [2] (setting [9]).

`COc1cc(CCN(C)C(=O)CCCNC(=O)COc2cccc3c2C(=O)N(C2CCC(=O)NC2=O)C3=O)c(C)cc1Nc1ncc(Cl)c(Nc2ccccc2S(=O)(=O)C(C)C)n1` (stereo not drawn) [compound 5, N-(4-((5-chloro-4-((2-(isopropylsulfonyl)phenyl)amino)pyrimidin-2-yl)amino)-5-methoxy-2-methylphenethyl)-4-(2-((2-(2,6-dioxopiperidin-3-yl)-1,3-dioxoisoindolin-4-yl)oxy)acetamido)-N-methylbutanamide]: the half-maximal inhibitory concentration (IC50) in test [1] (setting [3]) came to 149 nM. The Dmax in test [2] (setting [4]) and in test [2] (setting [6]) was 44.5% throughout. The DC50 in test [2] (setting [7]) is 239 nM.

`COc1cc(CCN(C)C(=O)CCOCCC(=O)N[C@H](C(=O)N2C[C@H](O)C[C@H]2C(=O)N[C@@H](C)c2ccc(-c3scnc3C)cc2)C(C)(C)C)c(C)cc1Nc1ncc(Cl)c(Nc2ccccc2S(=O)(=O)C(C)C)n1` [compound 52, (2S,4R)-1-((S)-2-(3-(3-((4-((5-chloro-4-((2-(isopropylsulfonyl)phenyl)amino)pyrimidin-2-yl)amino)-5-methoxy-2-methylphenethyl)(methyl)amino)-3-oxopropoxy)propanamido)-3,3-dimethylbutanoyl)-4-hydroxy-N-((S)-1-(4-(4-methylthiazol-5-yl)phenyl)ethyl)pyrrolidine-2-carboxamide]: in test [1] (setting [3]), the IC50 amounted to 67.7 nM. Further, the Dmax was 54.8% in test [2] (setting [4]), 49.4% in test [2] (setting [5]) and 52.1% in test [2] (setting [6]). Moreover, the 50% degradation concentration (DC50) is 214 nM in test [2] (setting [7]), 107 nM in test [2] (setting [8]) and 160 nM in test [2] (setting [9]).

As for `COc1cc(CCN(C)C(=O)CCCCCCCCNc2cccc3c2C(=O)N(C2CCC(=O)NC2=O)C3=O)c(C)cc1Nc1ncc(Cl)c(Nc2ccccc2P(C)(C)=O)n1` (stereo not drawn) [Compound 66], the IC50 in test [1] (Homo sapiens, NCI-H3122, Table 2) is 1630 nM. The Dmax was 23.6% in test [2] (NCI-H3122, Table 2, first Dmax column, H3122 EML4-ALK-HiBit, 16 hours, read-out: Degradation Dmax); 49.3% in test [2] (NCI-H3122, Table 2, second Dmax column, H3122 EML4-ALK-HiBit, 16 hours, read-out: Degradation Dmax); 36.5% in test [2] (NCI-H3122, Table 2, average Dmax, read-out: Degradation Avg. Dmax). Also, the half-maximal degradation concentration (DC50) in test [2] (Table 2, first DC50 column, H3122 EML4-ALK-HiBit, 16 hours, read-out: Degradation DC50) stood at 1730 nM; in test [2] (Table 2, second DC50 column, H3122 EML4-ALK-HiBit, 16 hours, read-out: Degradation DC50) it was 670 nM; in test [2] (Table 2, average DC50, read-out: Degradation Avg. DC50), 1200 nM.
